Values after ≈ are worked out from the molar mass of the structure shown. Read-outs that look alike come from different tables or passages of the source.
Assays:
pCK2 motif = test: In vivo pharmacodynamic study, pCK2 motif inhibition in SNU-C1 (colon) xenograft tumor model; parameters: species or system mice; settings: for % inh. of p-CK2 at 24th hour: oral gavage, SNU-C1 (colon) xenograft in mice
Protocol: pCK2 motif is a putative cellular substrate of CK2 with molecular weight of ˜60 kDa.
To determine extent of pCK2 motif inhibition by test compounds in vivo, SNU-C1 colon tumor cells were inoculated into female BALB/c athymic mice and propagated as subcutaneous xenografts. The dosing solutions of the compound or control were administered to mice with tumors reaching ˜500 mm by oral gavage at the indicated dose levels and schedules. Tumors were collected from control and treated mice at the indicated times and immediately frozen in liquid nitrogen. Frozen tumors were thawed on ice in 5 volumes of TTG buffer (Tris-HCl, pH 7.9, 10% glycerol, 0.02% Tween-20). Tumors were homogenized using a Qiagen TissueLyser II (3×1 min (1/30S)) in Qiagen Tissulyser tubes containing steel beads. Tumor homogenates were clarified by microcentrifugation at 13000 rpm for 10 min. Western blot analysis was performed using 60 μg of protein per lane on 4-15% BioRad SDS-PAGE gels. Blots were probed with an anti-pCK2 motif antibody (mAb #8738 Cell Signaling Technology) and anti-Actin antibody. The pCK2 motif antibody is a purified […] antibody developed by immunizing mice with a degenerate mixture of peptides corresponding to the consesnus phorylation site used by CK2. The intensity of the pCK2 motif band was measured on images obtained from the Licor Odyssey instrument. % pCK2 remaining at each dose was calculated relative to the average intensity of bands from untreated, control mouse tumors.

[1] = Single-dose pharmacokinetics in rats (oral bioavailability); assay type: in vivo; settings: for Oral Bioavailability in Rats, % F: male Sprague-Dawley rats, ratio of dose-normalized AUC, oral vs IV; for Prodrug bioavailability in Rats, % F: dose-normalized AUC of parent (Example 1) after oral prodrug vs IV infusion of parent
Protocol: In a study to determine oral bioavailability in male Sprague-Dawley rats, two groups of animals (N=3 per group, 300 to 350 g) are used. One group (non-fasted) receives the compound by IV infusion (over 10 minutes) via a jugular vein and one group (fasted) receives drug by oral gavage. Serial blood samples (˜0.3 mL) are collected from the jugular vein into tri-potassium ethylenediaminetetraacetic acid (K3EDTA)-containing tubes at 0.167 (for IV), 0.25, 0.5, 1, 3, 5, 7, and 24 hours, post dose and then centrifuged at 4° C. (1500 to 2000×g) to obtain plasma, which is stored at −20° C. until analysis by LC-MS/MS.
The pharmacokinetic parameters were obtained by non-compartmental analysis of plasma concentration (determined by LC/MS/MS) vs. time data (ThermoKinetica Software version 4.4.1). The peak concentration (Cmax) and time for Cmax, Tmax, were recorded directly from experimental observations. The area under the curve from time zero to the last sampling time (AUC0-t) was calculated using a combination of linear and log trapezoidal summations. The total plasma clearance (CLTp), steady-state volume of distribution (Vss), apparent elimination half-life (t½) and mean residence time (MRT) were estimated after IV administration. Estimation of T½ was made using a minimum of 3 time points with quantifiable concentrations.
For non-prodrugs, the absolute oral bioavailability F was estimated as the ratio of dose-normalized AUC values following oral and IV doses.
In case of prodrugs (e.g., Examples 2 and 5), absolute bioavailability F was estimated as the ratio of dose-normalized AUC values of parent (Example 1) upon oral administration of prodrugs (Examples 2 and 5) and IV infusion of parent (Example 1).

CK2A2 = CK2A2 (Homo sapiens (Human), UniProt P19784); test: CK2 kinase assay (CK2A2); assay type: biochemical; settings: recombinant CK2A2
Protocol: (§1) The effectiveness of compounds of the present invention as inhibitors of protein kinases can be readily tested by assays known to those skilled in the art. For example, in vitro protein kinase assays may be conducted with a relevant purified protein kinase and an appropriate synthetic substrate to determine the inhibitory activity of the compounds. […] Reaction mixtures were incubated at 30° C. for 1 hour, and reaction products were captured by binding to phosphocellulose (P81) filter plates. Incorporation of radioactive phosphate into the peptide substrate was determined by liquid scintillation counting. The potency of compounds in inhibiting CK2 is expressed as IC50, defined as the concentrations of compounds required to inhibit the enzymatic activity by 50%.
(§2) The inhibitory activity of the instant compounds may also be measured by recombinant CK2 holoenzyme kinase assays. The assays were performed in U-bottom 384-well plates. The final assay volume was 30 μl prepared from 15 μl additions of enzyme and substrates (fluoresceinated peptide FL-RRRADDSDDDDD-NH2 and ATP) and test compounds in assay buffer (20 mM HEPES pH 7.4, 10 mM MgCl2, 100 mM NaCl, 0.015% Brij35 and 0.25 mM DTT). The reaction was initiated by the combination of bacterially expressed, CK2 α/β or CK2 α′/β holoenzyme with substrates and test compounds. The reaction was incubated at room temperature for 60 minutes and terminated by adding 30 μl of 35 mM EDTA to each sample. The reaction mixture was analyzed on the Caliper LABCHIP® 3000 (Caliper, Hopkinton, Mass.) by electrophoretic separation of the fluorescent substrate and phosphorylated product. Inhibition data were calculated by comparison to no enzyme control reactions for 100% inhibition and vehicle-only reactions for 0% inhibition. The final concentration of reagents in the CK2 α/β assay was 25 μM ATP, 1.5 μM FL-RRRADDSDDDDD-NH2, 50 pM CK2 α/β holoenzyme, and 1.6% DMSO. The final concentration of reagents in the CK2 α′/β assay was 10 μM ATP, 1.5 μM FL-RRRADDSDDDDD-NH2, 100 pM CK2 α′/β holoenzyme, and 1.6% DMSO. Dose response curves were generated to determine the concentration required inhibiting 50% of kinase activity (IC50). Compounds were dissolved at 10 mM in dimethylsulfoxide (DMSO) and evaluated at eleven concentrations. IC50 values were derived by non-linear regression analysis.

CK2A1 = CK2A1 (Homo sapiens (Human), UniProt P68400); test: CK2 kinase assay (CK2A1); assay type: biochemical; settings: recombinant CK2A1
Protocol: as §1, §2

[2] = Thermodynamic equilibrium aqueous solubility assay; assay type: physicochemical; settings: for solubility at 24 h: aqueous buffer, thermodynamic from solid
Protocol: Standards Preparation: The calibration standard was prepared by accurately weighing 0.5-0.7 mg of sample in 5 ml of methanol. If the material was not fully soluble in methanol, other solvents such as DMSO or mixed solvents were used.
The solution was sonicated and vortexed for ˜30 seconds. The vials were shaken at 300 rpm at room temperature for 24 hrs. The exact incubation time for a specific prodrug was based on the prior aqueous stability data. If the compound was stable in the buffer up to 24 hrs, then the solubility was measured after 24 hrs, otherwise kinetic solubility data was reported. The final saturated solution was then transferred to a 1.5 mL eppendorf tube and centrifuged for ˜2 min. at 10000 rpms. The supernatant from the saturated solution was transferred to a glass HPLC vial and the solubility was analyzed by HPLC using a four point calibration curve.

[3] = 50 mM potassium phosphate buffer, pH 6.5, 50 mM potassium phosphate, read-out: Solubility pH 6.5
[4] = simulated gastric fluid, pH 1.0, read-out: Solubility pH 1.0
[5] = 50 mM sodium acetate buffer, pH 4.0, 50 mM sodium acetate, read-out: Solubility pH 4.0

Sequence of CK2A2 (P19784 whole entry): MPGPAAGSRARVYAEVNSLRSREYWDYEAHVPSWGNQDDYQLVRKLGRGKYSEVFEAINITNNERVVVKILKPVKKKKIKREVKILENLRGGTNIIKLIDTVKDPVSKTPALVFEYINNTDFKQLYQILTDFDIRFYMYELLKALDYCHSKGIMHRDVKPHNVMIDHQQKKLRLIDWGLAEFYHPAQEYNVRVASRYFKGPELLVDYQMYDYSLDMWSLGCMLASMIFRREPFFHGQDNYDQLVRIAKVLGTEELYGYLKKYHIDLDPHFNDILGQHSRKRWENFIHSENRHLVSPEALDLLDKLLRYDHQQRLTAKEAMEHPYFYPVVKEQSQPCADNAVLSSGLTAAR
Sequence of CK2A1 (P68400 whole entry): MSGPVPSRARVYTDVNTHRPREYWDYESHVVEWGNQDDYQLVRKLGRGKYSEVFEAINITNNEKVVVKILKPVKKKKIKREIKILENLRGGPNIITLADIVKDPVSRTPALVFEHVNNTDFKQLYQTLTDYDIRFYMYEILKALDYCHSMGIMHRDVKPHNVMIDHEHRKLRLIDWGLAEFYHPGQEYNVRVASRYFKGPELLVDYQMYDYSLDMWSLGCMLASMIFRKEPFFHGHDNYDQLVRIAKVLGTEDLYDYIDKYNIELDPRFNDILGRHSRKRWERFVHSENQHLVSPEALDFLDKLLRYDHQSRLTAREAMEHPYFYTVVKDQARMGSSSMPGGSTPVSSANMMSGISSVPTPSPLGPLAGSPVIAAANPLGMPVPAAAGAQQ

Structure (SMILES)	Oral Bioavailability in Rats, % F [1]	IC50 (CK2A2)	IC50 (CK2A1)	bioavailability in rats compared to Example 174 of WO2014011974 (in words) ([1]; rats, oral)	% inh. of p-CK2 at 24th hour (pCK2 motif; 40 mg/kg BID)	solubility at 24 h [2, 3]	solubility at 24 h [2, 4]	% inh. of p-CK2 at 24th hour (pCK2 motif; 15 mg/kg BID)	suppression of pCK2 motif levels relative to vehicle control (in words) (pCK2 motif; SNU-C1 xenograft in mice, up to 24 hours)	solubility compared to the parent compound Example 1 (in words) [2]	solubility at 24 h [2, 5]	Prodrug bioavailability in Rats, % F ([1]; rats)
CCNc1nc(N(C(=O)OCOC(=O)Cc2ccc(OP(=O)(O)O)cc2)c2cc(C#N)cc(N3CCN([C@@H](C)C(N)=O)CC3)c2Cl)nn2c(C#N)cnc12 [Example 2, (S)-(((3-(4-(1-amino-1-oxopropan-2-yl)piperazin-1-yl)-2-chloro-5-cyanophenyl)(7-cyano-4-(ethylamino)imidazo[2,1-f][1,2,4]triazin-2-yl)carbamoyl)oxy)methyl 2-(4-(phosphonooxy)phenyl)acetate]	–	10 to 100 nM	100 to 1000 nM	–	–	835 µg/mL (≈ 1070 µM)	242 µg/mL (≈ 309 µM)	–	–	superior solubility	124 µg/mL (≈ 159 µM)	40 % F
CCNc1nc(N(C(=O)OCOC(=O)CC(C)(C)c2c(C)cc(C)cc2OP(=O)(O)O)c2cc(C#N)cc(N3CCN([C@@H](C)C(N)=O)CC3)c2Cl)nn2c(C#N)cnc12 [Example 5, (S)-(((3-(4-(1-amino-1-oxopropan-2-yl)piperazin-1-yl)-2-chloro-5-cyanophenyl)(7-cyano-4-(ethylamino)imidazo[2,1-f][1,2,4]triazin-2-yl)carbamoyl)oxy)methyl 3-(2,4-dimethyl-6-(phosphonooxy)phenyl)-3-methylbutanoate]	–	10 to 100 nM	100 to 1000 nM	–	–	1340 µg/mL (≈ 1580 µM)	253 µg/mL (≈ 297 µM)	–	–	superior solubility	160 µg/mL (≈ 188 µM)	88 % F

The next lines start with results.

Oral Bioavailability in Rats, % F [1]	IC50 (CK2A2)	IC50 (CK2A1)	bioavailability in rats compared to Example 174 of WO2014011974 (in words) ([1]; rats, oral)	Structure (SMILES)	% inh. of p-CK2 at 24th hour (pCK2 motif; 40 mg/kg BID)	solubility at 24 h [2, 3]	solubility at 24 h [2, 4]	% inh. of p-CK2 at 24th hour (pCK2 motif; 15 mg/kg BID)	suppression of pCK2 motif levels relative to vehicle control (in words) (pCK2 motif; SNU-C1 xenograft in mice, up to 24 hours)	solubility compared to the parent compound Example 1 (in words) [2]	solubility at 24 h [2, 5]	Prodrug bioavailability in Rats, % F ([1]; rats)
8 % F	–	–	–	COC(=O)N[C@H]1CCN(c2cc(C#N)cc(Nc3nc(NC4CC4)c4ncc(C#N)n4n3)c2Cl)C[C@@H]1O [174 (WO2014011974), reference compound]	33%/40 mg/kg BID	–	–	–	–	–	–	–
68 % F	< 10 nM	< 10 nM	marked improvement in bioavailability	CCNc1nc(Nc2cc(C#N)cc(N3CCN([C@@H](C)C(N)=O)CC3)c2Cl)nn2c(C#N)cnc12 [Example 1, (S)-2-(4-(2-chloro-5-cyano-3-((7-cyano-4-(ethylamino)imidazo[2,1-f][1,2,4]triazin-2-yl)amino)phenyl)piperazin-1-yl)propanamide]	–	< 1 µg/mL	22 µg/mL (≈ 44.5 µM)	91%/15 mg/kg BID	significantly suppressed	–	–	–
–	10 to 100 nM	100 to 1000 nM	–	CCNc1nc(N(C(=O)OCOC(=O)/C=C/C(=O)O)c2cc(C#N)cc(N3CCN([C@@H](C)C(N)=O)CC3)c2Cl)nn2c(C#N)cnc12 [Example 3, (S,E)-4-((((3-(4-(1-amino-1-oxopropan-2-yl)piperazin-1-yl)-2-chloro-5-cyanophenyl)(7-cyano-4-(ethylamino)imidazo[2,1-f][1,2,4]triazin-2-yl)carbamoyl)oxy)methoxy)-4-oxobut-2-enoic Acid]	–	–	–	–	–	–	–	–
–	< 10 nM	10 to 100 nM	–	CCNc1nc(N(C(=O)OCOC(=O)CC(C)(C)COP(=O)(O)O)c2cc(C#N)cc(N3CCN([C@@H](C)C(N)=O)CC3)c2Cl)nn2c(C#N)cnc12 [Example 4, (S)-(((3-(4-(1-amino-1-oxopropan-2-yl)piperazin-1-yl)-2-chloro-5-cyanophenyl)(7-cyano-4-(ethylamino)imidazo[2,1-f][1,2,4]triazin-2-yl)carbamoyl)oxy)methyl 3,3-dimethyl-4-(phosphonooxy)butanoate]	–	–	–	–	–	–	–	–

Source: patent publication US10550125B2, “Prodrugs of imidazotriazine compounds as CK2 inhibitors” (BRISTOL-MYERS SQUIBB COMPANY, priority 2015, dated 2020)
